# Laboratory results published in ChEMBL document CHEMBL1201862, “PubChem BioAssay data set” (2004).
# The source made the active and inactive calls.
# Legend:
# [1] = Trypanosoma cruzi growth suppression in host cells – NIH3T3 host cells, beta-gal luminescence, confirmation (AID 2044); type: functional, cell-based;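 note: intracellular parasites grown in NIH/3T3 mouse fibroblasts as host cells; luminescent beta-galactosidase reporter signal from transgenic T. cruzi replicating inside host cells; inhibitors lower the luminescence signal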
# [2] = NIH3T3 cell viability loss – ATP luminescence, mouse fibroblasts, counter-screen, dose response (AID 2010); type: functional, cell-based;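 note: cells exposed to compound for about 90 hours before reading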
# [3] = system: INS1; experiment: INS-1E survival protection against cytokine death – cell-based, luminescence, retest, dose response (AID 449756); type: functional; conditions: Rattus norvegicus;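 note: cell death triggered by IL-1 beta plus TNF-alpha plus IFN-gamma mixture; protective hits raise ATP signal compared with cytokine alone wells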
# [4] = NIH-3T3 fibroblast cytotoxicity, dose response, cytotoxicity control, cell-based, fluorescence, Alamar Blue, secondary assay (AID 2327); type: functional;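 note: NIH-3T3 mouse fibroblasts cultured with fluconazole at 8 µg/mL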
# [5] = fluconazole-exposed Candida albicans growth modulators – fluorescence, retest, confirmation (AID 2467); type: functional, cell-based
# [6] = biological target: T1, Microphthalmia-associated transcription factor (Homo sapiens, UniProt O75030); experiment: reducers of TRPM1 reporter luminescence, concentration series – cell-based, SK-MEL-5, cherry-picked, set 3, MITF inhibitor project, dose response (AID 493073); type: functional;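 note: SK-MEL-5 melanoma cells with luciferase driven by the MITF target TRPM1 promoter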
# T1 sequence (O75030 whole entry): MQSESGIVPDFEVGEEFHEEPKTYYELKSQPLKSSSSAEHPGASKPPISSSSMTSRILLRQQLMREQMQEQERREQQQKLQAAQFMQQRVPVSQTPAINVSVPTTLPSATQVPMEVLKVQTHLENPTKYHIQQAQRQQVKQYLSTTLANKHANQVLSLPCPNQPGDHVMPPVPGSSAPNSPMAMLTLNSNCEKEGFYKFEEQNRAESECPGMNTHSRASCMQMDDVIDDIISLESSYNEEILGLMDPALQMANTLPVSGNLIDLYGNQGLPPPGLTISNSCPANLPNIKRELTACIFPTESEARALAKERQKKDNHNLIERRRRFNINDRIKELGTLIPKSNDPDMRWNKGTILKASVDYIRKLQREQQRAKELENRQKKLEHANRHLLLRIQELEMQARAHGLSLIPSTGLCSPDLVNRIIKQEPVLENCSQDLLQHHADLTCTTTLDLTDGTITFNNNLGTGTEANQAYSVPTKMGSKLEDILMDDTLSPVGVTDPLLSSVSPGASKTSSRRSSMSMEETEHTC
# [7] = system: Vero; experiment: cells; type: functional; conditions: Chlorocebus sabaeus
# [8] = biological target: Genome polyprotein (dengue virus type 2, UniProt P29990); experiment: flavivirus cap methylation enzyme inhibition – biochemical, confirmation dose response, primary screen (AID 588689); type: functional
# Genome polyprotein, sequence (P29990 2492-3391 limits assumed): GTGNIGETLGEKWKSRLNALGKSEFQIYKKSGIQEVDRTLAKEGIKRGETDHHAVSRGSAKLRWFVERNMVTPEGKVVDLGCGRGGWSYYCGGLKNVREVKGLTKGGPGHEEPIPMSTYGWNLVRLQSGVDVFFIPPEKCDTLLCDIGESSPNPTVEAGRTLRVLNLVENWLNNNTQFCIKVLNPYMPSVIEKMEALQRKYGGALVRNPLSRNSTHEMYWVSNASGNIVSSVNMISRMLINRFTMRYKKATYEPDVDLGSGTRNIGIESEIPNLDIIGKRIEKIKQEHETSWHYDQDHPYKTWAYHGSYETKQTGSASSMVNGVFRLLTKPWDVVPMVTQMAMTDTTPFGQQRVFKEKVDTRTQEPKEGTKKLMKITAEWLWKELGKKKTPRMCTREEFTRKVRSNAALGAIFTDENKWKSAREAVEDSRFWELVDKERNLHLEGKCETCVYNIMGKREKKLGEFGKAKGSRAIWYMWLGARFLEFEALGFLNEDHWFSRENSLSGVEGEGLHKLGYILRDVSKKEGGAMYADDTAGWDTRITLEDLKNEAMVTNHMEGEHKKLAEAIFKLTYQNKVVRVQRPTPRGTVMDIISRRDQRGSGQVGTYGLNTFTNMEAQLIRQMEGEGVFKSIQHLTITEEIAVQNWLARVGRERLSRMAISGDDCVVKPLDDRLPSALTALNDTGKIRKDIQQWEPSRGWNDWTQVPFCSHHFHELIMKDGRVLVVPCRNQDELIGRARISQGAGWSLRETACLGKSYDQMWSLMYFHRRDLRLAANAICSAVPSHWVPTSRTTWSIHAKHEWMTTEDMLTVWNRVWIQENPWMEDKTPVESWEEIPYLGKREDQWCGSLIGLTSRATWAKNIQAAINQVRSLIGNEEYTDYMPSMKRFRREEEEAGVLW
# [9] = biological target: Cytochrome P450 2C9 (Homo sapiens, UniProt P11712)
# Cytochrome P450 2C9, sequence (P11712 whole entry): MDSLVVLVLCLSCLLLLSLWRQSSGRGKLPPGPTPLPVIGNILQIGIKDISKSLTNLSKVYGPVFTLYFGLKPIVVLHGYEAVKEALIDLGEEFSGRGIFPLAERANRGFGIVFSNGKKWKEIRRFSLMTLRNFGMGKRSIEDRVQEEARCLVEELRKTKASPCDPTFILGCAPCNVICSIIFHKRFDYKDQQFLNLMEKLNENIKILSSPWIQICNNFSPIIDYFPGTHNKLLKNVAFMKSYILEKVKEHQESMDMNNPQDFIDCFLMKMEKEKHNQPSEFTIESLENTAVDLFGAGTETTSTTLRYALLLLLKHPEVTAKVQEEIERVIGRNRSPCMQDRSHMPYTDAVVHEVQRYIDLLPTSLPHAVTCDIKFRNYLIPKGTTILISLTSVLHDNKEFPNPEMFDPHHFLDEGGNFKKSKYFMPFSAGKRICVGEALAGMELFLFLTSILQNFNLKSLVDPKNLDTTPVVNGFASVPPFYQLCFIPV
# [10] = biological target: T2, Cytochrome P450 1A2 (Homo sapiens, UniProt P05177);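 note: PubChem cytochrome P450 panel assay, CYP1A2 panel member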
# T2 sequence (P05177 whole entry): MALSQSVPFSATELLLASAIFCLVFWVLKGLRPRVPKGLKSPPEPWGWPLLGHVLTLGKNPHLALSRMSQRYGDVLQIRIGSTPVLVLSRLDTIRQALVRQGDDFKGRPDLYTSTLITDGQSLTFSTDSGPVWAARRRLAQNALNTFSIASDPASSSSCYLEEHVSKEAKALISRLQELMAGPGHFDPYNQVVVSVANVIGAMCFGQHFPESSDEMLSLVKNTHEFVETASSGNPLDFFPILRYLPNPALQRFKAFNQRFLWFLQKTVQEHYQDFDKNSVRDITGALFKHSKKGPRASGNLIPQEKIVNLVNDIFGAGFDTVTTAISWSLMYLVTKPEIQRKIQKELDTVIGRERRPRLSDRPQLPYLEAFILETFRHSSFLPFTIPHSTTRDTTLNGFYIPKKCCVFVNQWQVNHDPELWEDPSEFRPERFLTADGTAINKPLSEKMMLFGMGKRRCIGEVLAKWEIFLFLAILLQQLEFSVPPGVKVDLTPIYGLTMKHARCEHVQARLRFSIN
# [11] = biological target: Cytochrome P450 2D6 (Homo sapiens, UniProt P10635);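 note: CYP2D6 member of a cytochrome P450 panel assay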
# Cytochrome P450 2D6, sequence (P10635 whole entry): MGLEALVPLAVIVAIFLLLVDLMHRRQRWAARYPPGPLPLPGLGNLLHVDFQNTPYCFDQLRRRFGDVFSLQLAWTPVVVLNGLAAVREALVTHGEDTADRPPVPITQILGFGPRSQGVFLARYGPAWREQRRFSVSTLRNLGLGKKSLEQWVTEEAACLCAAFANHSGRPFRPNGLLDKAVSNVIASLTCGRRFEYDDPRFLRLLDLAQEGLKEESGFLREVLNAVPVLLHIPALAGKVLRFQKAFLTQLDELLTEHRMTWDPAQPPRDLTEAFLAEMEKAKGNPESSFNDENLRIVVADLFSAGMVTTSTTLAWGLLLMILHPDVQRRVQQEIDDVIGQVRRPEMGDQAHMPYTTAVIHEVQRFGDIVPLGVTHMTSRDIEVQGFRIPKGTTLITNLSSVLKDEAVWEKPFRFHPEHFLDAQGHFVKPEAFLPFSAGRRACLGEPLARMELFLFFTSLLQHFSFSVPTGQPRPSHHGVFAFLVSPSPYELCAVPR
# [12] = system: Streptococcus; experiment: GAS UMAA2166 growth inhibition – luminescence, BacTiterGlo, counter-screen for streptokinase expression inhibitor project, dose response (AID 1915); type: functional, organism-based;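 note: potency for reduction of bacterial viability or growth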
# [13] = biological target: T3, Streptokinase A (Streptococcus pyogenes serotype M1, UniProt P10520); experiment: viability-normalized secreted streptokinase activity reduction – plasminogen activation absorbance, OD405, dose response (AID 1914); type: functional, Streptococcus pyogenes M1 GAS;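 note: secreted streptokinase activity via plasminogen activation per viability signal from cell pellet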
# T3 sequence (P10520 whole entry): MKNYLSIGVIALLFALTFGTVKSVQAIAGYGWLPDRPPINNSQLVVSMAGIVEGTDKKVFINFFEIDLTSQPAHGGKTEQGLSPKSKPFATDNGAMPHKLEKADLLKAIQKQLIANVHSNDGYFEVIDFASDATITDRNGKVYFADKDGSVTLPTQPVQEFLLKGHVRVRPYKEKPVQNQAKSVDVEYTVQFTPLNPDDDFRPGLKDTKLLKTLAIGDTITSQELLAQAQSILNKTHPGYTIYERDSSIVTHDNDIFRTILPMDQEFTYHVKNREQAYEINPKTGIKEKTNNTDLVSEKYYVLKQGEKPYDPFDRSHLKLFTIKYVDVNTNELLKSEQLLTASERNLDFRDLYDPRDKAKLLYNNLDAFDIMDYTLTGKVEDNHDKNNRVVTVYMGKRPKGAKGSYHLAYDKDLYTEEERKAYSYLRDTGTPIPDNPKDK
# [14] = viability of uninfected HEp-2 cells – cell-based, HTS, cytotoxicity control for RSV inhibitor project, dose response (AID 2410); type: functional; conditions: human respiratory syncytial virus
# [15] = system: Streptococcus sp. 'group A'; experiment: Streptococcus pyogenes SK(-)GAS viability under kanamycin – luminescence, BacTiterGlo, confirmation, counter-screen for streptokinase expression inhibitor project, dose response (AID 1900); type: functional, organism-based
# [16] = biological target: T4, Sentrin-specific protease 6 (Homo sapiens, UniProt Q9GZR1); type: functional;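 note: Luminescence-based dose-response confirmatory assay of SENP6 inhibition, following up an ultra-high-throughput screen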
# T4 sequence (Q9GZR1 whole entry): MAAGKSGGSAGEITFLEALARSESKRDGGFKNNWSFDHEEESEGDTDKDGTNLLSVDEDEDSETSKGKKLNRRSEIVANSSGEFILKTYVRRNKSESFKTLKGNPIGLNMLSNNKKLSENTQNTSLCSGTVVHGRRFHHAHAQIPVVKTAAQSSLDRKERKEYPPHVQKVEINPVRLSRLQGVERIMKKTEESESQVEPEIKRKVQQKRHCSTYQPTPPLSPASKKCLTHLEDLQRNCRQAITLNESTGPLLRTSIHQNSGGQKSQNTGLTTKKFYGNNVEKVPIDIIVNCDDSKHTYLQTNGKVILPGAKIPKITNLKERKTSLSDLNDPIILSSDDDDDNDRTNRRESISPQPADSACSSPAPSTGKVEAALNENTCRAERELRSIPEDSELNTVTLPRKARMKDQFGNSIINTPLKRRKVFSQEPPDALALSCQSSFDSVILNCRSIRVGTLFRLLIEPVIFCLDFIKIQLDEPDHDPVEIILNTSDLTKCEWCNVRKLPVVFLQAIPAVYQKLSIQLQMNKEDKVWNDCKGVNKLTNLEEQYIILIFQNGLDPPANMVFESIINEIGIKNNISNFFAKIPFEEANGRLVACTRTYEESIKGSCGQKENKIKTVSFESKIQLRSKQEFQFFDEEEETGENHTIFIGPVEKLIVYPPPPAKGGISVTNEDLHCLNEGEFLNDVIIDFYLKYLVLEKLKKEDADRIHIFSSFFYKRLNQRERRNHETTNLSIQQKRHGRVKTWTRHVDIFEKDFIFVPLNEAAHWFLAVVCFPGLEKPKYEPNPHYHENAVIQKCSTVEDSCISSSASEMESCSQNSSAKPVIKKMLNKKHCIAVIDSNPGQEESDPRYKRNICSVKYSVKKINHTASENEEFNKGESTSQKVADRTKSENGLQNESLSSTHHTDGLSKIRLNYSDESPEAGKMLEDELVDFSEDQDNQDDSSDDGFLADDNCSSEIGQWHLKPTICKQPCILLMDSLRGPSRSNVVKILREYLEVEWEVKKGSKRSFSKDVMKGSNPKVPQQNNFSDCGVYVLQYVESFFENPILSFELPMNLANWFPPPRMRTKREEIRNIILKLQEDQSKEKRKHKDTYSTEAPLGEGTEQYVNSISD
# [17] = biological target: T5, Sentrin-specific protease 8 (Homo sapiens, UniProt Q96LD8); type: functional;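 note: luminescence read-out of SENP8 inhibition, dose-response confirmation following an ultra-high-throughput screen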
# T5 sequence (Q96LD8 whole entry): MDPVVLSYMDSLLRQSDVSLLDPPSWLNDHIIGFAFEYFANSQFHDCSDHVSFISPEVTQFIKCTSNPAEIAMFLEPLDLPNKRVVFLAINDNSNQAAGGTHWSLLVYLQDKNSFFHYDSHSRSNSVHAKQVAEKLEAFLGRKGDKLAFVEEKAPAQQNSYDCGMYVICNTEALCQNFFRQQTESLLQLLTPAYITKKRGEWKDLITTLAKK
# [18] = biological target: T6, Caspase-3 (Homo sapiens, UniProt P42574); type: functional;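 note: Dose-response selectivity test against caspase-3 for candidate inhibitors of sentrin-specific proteases (SENPs)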
# T6 sequence (P42574 whole entry): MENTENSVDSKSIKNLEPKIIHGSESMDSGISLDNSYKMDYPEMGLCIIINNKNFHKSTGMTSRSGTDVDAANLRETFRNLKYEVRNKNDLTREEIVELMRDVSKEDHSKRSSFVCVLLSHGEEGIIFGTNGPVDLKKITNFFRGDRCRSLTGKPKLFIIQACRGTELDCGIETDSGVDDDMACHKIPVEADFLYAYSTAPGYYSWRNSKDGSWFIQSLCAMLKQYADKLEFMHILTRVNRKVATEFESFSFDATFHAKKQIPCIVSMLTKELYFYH
# [19] = biological target: T7, Sentrin-specific protease 7 (Homo sapiens, UniProt Q9BQF6); type: functional;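 note: Luminescence-based dose-response confirmation of ultra-high-throughput screening hits, measuring inhibition of SENP7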
# T7 sequence (Q9BQF6 whole entry): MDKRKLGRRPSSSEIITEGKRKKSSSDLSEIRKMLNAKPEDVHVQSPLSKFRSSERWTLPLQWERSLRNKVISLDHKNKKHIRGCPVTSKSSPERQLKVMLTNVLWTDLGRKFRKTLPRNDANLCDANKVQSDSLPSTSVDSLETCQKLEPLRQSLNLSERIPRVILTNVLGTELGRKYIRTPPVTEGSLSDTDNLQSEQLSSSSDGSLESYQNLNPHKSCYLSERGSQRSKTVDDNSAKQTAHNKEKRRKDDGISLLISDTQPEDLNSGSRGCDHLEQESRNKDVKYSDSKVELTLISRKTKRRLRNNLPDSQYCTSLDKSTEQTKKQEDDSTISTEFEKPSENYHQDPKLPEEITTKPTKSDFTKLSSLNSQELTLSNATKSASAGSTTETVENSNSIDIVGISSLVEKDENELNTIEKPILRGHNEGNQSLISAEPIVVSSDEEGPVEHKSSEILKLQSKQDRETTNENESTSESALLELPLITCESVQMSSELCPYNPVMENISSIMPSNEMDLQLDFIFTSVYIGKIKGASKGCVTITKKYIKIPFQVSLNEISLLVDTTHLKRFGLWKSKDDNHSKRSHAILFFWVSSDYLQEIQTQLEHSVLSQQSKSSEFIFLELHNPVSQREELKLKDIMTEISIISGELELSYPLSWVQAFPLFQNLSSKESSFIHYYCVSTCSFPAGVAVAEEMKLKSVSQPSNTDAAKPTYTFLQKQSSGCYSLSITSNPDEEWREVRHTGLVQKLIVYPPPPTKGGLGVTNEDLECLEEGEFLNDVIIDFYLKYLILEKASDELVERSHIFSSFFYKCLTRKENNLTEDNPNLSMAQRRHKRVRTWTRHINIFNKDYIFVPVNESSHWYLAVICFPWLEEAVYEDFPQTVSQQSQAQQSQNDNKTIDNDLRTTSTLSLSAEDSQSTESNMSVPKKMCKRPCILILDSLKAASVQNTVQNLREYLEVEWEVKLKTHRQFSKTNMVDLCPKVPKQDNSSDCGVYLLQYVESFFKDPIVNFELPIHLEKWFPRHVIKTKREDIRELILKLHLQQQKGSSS
# [20] = biological target: Eukaryotic translation initiation factor 4E (Mus musculus, UniProt P63073); experiment: blockers of eIF4G binding by eIF4E – biochemical, TR-FRET, dose response (AID 855); type: functional;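 note: potency for disrupting eIF4E binding to eIF4GI seen as loss of FRET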
# Eukaryotic translation initiation factor 4E, sequence (P63073 whole entry): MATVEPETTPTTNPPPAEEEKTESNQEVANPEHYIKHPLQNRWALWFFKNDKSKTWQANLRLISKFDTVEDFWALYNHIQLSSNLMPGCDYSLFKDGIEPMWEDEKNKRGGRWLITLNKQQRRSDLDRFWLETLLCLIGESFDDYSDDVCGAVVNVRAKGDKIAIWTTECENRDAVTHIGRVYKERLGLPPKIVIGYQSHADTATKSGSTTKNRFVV
structure (smiles),measurement,setting,value
CCCOCc1ccc(O)c2ncccc12,EC50,[1],2.5 µM (active)
same,EC50,[2],8.03 µM (active)
same,AC50,[3],3.29 µM (active)
same,EC50,[4],16.2 µM (inconclusive)
same,EC50,[5],2.75 µM (active)
same,AC50,[6],15.5 µM (active)
COc1cccc(/C=C2\SC(=S)N(CCC(=O)NC3C=CS(=O)(=O)C3)C2=O)c1 (stereo not given),CC50,[7],23.8 µM (active)
CCOC(=O)c1c(C)oc2c1cc(NS(=O)(=O)c1ccc(C(=O)O)cc1)c1ccccc12,IC50,[8],73.8 µM (active)
Cc1cc2c(cc1S(N)(=O)=O)S(=O)(=O)CCC2,AC50,[9],inconclusive
O=C1NC(=O)N(c2ccc(F)cc2)C(=O)/C1=C/c1ccc(N2CCOCC2)cc1,IC50,[8],> 100 µM (active)
CCOc1ccc(NC(=O)c2oc3ccccc3c2NC(=O)CC)cc1,AC50,[9],inconclusive
O=C(CCN1C(=O)C2C3C=CC(C3)C2C1=O)NCCN1CCCc2ccccc21 (stereo not given),AC50,[10],10 µM (inconclusive)
same,AC50,[9],inconclusive
same,AC50,[11],22.4 µM (inconclusive)
CC(=O)N(C[C@@H](C)C(=O)O)c1c(I)cc(I)c(N)c1I,AC50,[9],inconclusive
COc1ccc2oc(=O)c(-c3csc(Nc4ccc(O)cc4)n3)cc2c1,EC50,[12],13.8 µM (active)
same,EC50,[13],> 150 µM (not active)
same,CC50,[14],38.5 µM (active)
same,EC50,[15],7.11 µM (active)
same,CC50,[7],13.3 µM (active)
C[C@@H](Cc1cccc(C(F)(F)F)c1)NCCOC(=O)c1ccccc1,AC50,[9],inconclusive
COc1ccc(C(=N)NOC(=O)C2CCCCC2)cc1,IC50,[16],29.6 µM (active)
same,IC50,[17],44.1 µM (active)
same,IC50,[18],28.4 µM (active)
same,IC50,[19],9.16 µM (active)
O=[N+]([O-])c1ccc(O)c(/C=N/c2ccc3c(c2)OCO3)c1,IC50,[8],41.9 µM (active)
Cc1cccc(-n2cnc(C(=O)NC3CCCCCC3)c2)n1,AC50,[10],11.2 µM (inconclusive)
same,AC50,[9],inconclusive
same,IC50,[20],> 64 µM (inactive)
C#CCN1C(=O)S/C(=C\c2ccc(-c3ccc(Cl)c(C(=O)O)c3)o2)C1=O,IC50,[16],11.6 µM (active)
same,EC50,[12],5.9 µM (active)
same,IC50,[17],14.9 µM (active)
same,EC50,[15],2.41 µM (active)
same,IC50,[18],29.6 µM (active)
same,IC50,[19],7.59 µM (active)
